# According to patent publication US11958854B2 (Hydra Biosciences, LLC, priority 2013, dated 2024):
# Biological target: T1, hTRPC4 (Homo sapiens, UniProt Q9UBN4)
# T1 sequence (Q9UBN4 1-977): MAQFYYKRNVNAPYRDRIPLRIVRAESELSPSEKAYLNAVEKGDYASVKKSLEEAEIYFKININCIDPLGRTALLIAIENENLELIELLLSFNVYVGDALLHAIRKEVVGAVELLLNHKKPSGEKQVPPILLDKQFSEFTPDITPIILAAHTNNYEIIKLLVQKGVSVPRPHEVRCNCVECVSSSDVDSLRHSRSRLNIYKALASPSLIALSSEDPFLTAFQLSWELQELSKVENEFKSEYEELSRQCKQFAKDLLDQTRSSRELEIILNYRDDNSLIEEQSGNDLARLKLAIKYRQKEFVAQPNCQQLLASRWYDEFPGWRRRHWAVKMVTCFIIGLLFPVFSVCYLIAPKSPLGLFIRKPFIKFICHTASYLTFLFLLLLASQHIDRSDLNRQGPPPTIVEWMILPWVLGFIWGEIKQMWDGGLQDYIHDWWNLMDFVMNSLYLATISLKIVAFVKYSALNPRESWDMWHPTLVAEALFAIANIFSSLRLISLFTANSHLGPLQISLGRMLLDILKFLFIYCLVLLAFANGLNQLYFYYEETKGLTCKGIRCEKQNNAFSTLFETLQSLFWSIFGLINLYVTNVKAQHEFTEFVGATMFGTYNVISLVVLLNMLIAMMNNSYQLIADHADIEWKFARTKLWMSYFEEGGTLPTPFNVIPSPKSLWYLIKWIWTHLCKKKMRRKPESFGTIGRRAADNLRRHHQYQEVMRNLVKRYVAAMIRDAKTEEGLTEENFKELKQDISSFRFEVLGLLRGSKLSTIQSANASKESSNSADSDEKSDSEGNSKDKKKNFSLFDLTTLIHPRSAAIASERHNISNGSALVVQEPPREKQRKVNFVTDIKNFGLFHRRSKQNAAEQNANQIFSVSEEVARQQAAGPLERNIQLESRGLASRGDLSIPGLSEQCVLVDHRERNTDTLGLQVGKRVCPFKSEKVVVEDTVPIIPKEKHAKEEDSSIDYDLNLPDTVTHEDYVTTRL
# Experiment: Whole-cell patch clamp, inward current (Table B)
# Assay type: cell-based
# Conditions: IC50 estimated by testing at 5 μM and 500 nM, all batches, read-out: hTRPC4 Patch Inwd (nM) (All Batches)
# Source text: Patch clamp experiments permit the detection of currents through the TRPC5 channel in the cell line described above. In normal whole-cell patch clamp recordings, a glass electrode is brought into contact with a single cell and a high-resistance (gigaohm) seal is established with the cell membrane. The membrane is then ruptured to achieve the whole-cell configuration, permitting control of the voltage of the cell membrane and measurement of currents flowing across the membrane using the amplifier attached to the electrode and resulting in the replacement of cytoplasm with the pipette solution. A perfusion system permits control of the extracellular solution, including the addition of blockers and activators of the current.
# TRPC5 cells were induced 20-48 hours, removed from growth plates, and replated at low density (to attain good single-cell physical separation) on glass coverslips for measurement. In some cases, cells were grown in low density overnight on glass coverslips. Patch clamp recordings were made in the whole-cell mode with a holding potential of −40 mV. Every 5 seconds, a voltage ramp was applied from −120 to +100 mV, 400 ms in duration. Currents elicited were quantified at −80 mV and +80 mV. […] The external solution consisted of 150 mM NaCl, 4.5 mM KCl, 1 mM MgCl2, 2 mM CaCl2), 10 mM HEPES, 10 mM glucose, 1 mM EGTA, pH 7.4. […] Potential blockers were tested for ability to block both inward and outward currents in the continued presence of LaCl3.
# “F” refers to agonist compounds. “ND” refers to compounds wherein the IC50 was not determined.
row,Compound,IC50 [nM]
1,Cn1c(=O)n(CCCO)c(=O)c2c1nc(Oc1cccc(OC(F)(F)F)c1)n2Cc1ccc(Cl)cc1 [Example 30],< 100
2,CCCOc1nc2c(c(=O)n(CCCO)c(=O)n2C)n1Cc1ccc(Cl)cc1 [Example 82],< 100
3,CCn1c(=O)n(CCCO)c(=O)c2c1nc(Oc1cccc(OC(F)(F)F)c1)n2Cc1ccccc1 [Example 145],< 100
4,Cc1cnc(Cn2c(Oc3cccc(OC(F)(F)F)c3)nc3c2c(=O)n(CCCO)c(=O)n3C)s1 [Example 161],< 100
5,CC(C)c1ccccc1-c1nc2c(c(=O)n(CCCO)c(=O)n2C)n1Cc1ccccc1 [Example 485],< 100
6,CC(C)CCn1c(Oc2cccc(OC(F)(F)F)c2)nc2c1c(=O)n(CCCO)c(=O)n2C [Example 587],< 100
